Test results published in ChEMBL document CHEMBL1136488, “Antibacterial and antiproliferative activity of cationic fullerene derivatives” (2003).
≈ marks a conversion by molar mass, not a printed value.

Key:
Staphylococcus aureus [1] = experiment: Antibacterial activity against Staphylococcus aureus 209P JC-1; format: functional
Enterococcus faecalis [2] = experiment: Antibacterial activity against vancomycin resistant Enterococcus faecalis NCTC 12201 (VRE); format: functional
Staphylococcus aureus [3] = experiment: Antibacterial activity against […] resistant Staphylococcus aureus M133 (MRSA); format: functional
Enterococcus hirae = experiment: Antibacterial activity against Enterococcus hirae ATCC 8043; format: functional
Enterococcus faecalis [4] = experiment: Antibacterial activity against Enterococcus faecalis W-73
Staphylococcus aureus [5] = experiment: Antibacterial activity against […] resistant Staphylococcus aureus M126 (MRSA); format: functional
Enterococcus faecium = experiment: Antibacterial activity against vancomycin resistant Enterococcus faecium vanA (VRE); format: functional
[6] = test system: Staphylococcus epidermidis; experiment: Antibacterial activity against Staphylococcus epidermidis ATCC 14990; format: functional
Enterococcus faecalis [7] = experiment: Antibacterial activity against Enterococcus faecalis W-73; format: functional

| Compound | MIC (Staphylococcus aureus [1]) [µg/mL] | MIC (Enterococcus faecalis [2]) [µg/mL] | MIC (Staphylococcus aureus [3]) [µg/mL] | MIC (Enterococcus hirae) [µg/mL] | MIC (Enterococcus faecalis [4]) [µg/mL] | MIC (Staphylococcus aureus [5]) [µg/mL] | MIC (Enterococcus faecium) [µg/mL] | MIC [6] [µg/mL] | MIC (Enterococcus faecalis [7]) [µg/mL] |
| --- | --- | --- | --- | --- | --- | --- | --- | --- | --- |
| CCCCCCC1C23C4=c5c6c7c8c9c%10c%11c%12c%13c%14c%15c%16c%17c%18c%19c%20c%21c%22c%23c(c5c5c6c6c8c%11c8c%11c%12c%15c%12c(c%20%16)c%21c%15c%23c5c(c68)c%15c%12%11)C2(C[N+]1(C)C)C%22C%19c1c-%18c2c5c(c13)C4C7C9=C5C1(C2C%17%14)C(CCCCCC)[N+](C)(C)CC%10%131.[I-].[I-] (centres undefined) | 6.25 | 25 | 12.5 | 25 | 50 | 12.5 | 12.5 | 12.5 |  |
| C[N+]1(C)CC23c4c5c6c7c8c9c%10c%11c%12c%13c%14c%15c%16c%17c%18c%19c%20c%21c(c2c2c4c4c6c9c6c4c4c2c%21c2c%19c(c%18%14)c9c%13c%10c6c9c24)C2=C4c6c(c-%16c9c%10c6C(C5C7=C%10C5(C[N+](C)(C)CC8%115)C9C%15%12)C43C1)C%17C2%20.[I-].[I-] (centres undefined) | 3.12 | 6.25 | 3.12 | 6.25 |  | 3.12 | 6.25 | 3.12 | 6.25 |
| CCCCCCCCCC1C23C4=C5c6c7c8c9c(c%10c%11c%12c%13c%14c%15c%16c%17c%18c%19c%20c%21c%22c%23c%24c(c6c6c8c8c%25c9c%11c%14c%25c9c%15c%18c%11c(c%23%19)c%24c6c8c%119)C5C%22c5c4c4c6c(c5-%21)C(C%20%17)C5(C6=C%12C%10C42)C(CCCCCCCCC)[N+](C)(C)CC%13%165)C73C[N+]1(C)C.[I-].[I-] (centres undefined) | > 100 | > 100 |  | > 100 |  |  | > 100 | > 100 | > 100 |
| C[N+]1(C)CC23c4c5c6c7c8c9c%10c%11c%12c%13c%14c%15c%16c%17c%18c%19c%20c(c2c2c4c4c6c6c8c%10c8c%12c%10c%14c(c%15%19)c%12c%20c2c2c4c6c8c%10c%122)C%18C2c4c6c8c%10c(c4-%17)C%16C%13C%114C[N+](C)(C)CC%104C=9C8C7C5=C6C23C1.[I-].[I-] (centres undefined) | 0.78 | 3.12 | 1.56 | 6.25 |  | 1.56 | 6.25 | 3.12 | 6.25 |
| C[N+]1(C)CC23C4=C5C6=C7C8C9=c%10c%11c%12c%13c%14c%15c%16c%17c%18c%19c%20c%21c%22c%23c(c4c4c2c2c%24c%25c(c%10c(c%11%15)c%10c%16c%19c(c%25%10)c%10c%20c%23c4c%24%10)C2C9C73C1)C1C%22=C2c3c(c6c(c-%13c3C(C%14%17)C23C[N+](C)(C)CC%21%183)C%128)C51.[I-].[I-] (centres undefined) | 1.56 | 12.5 | 0.78 | 12.5 |  | 3.12 | 12.5 | 6.25 | 12.5 |
| CCCCC1C23C4=c5c6c7c8c9c%10c%11c%12c%13c%14c%15c%16c%17c%18c%19c%20c%21c%22c%23c(c5c5c6c6c8c%11c8c%11c%12c%15c%12c(c%20%16)c%21c%15c%23c5c(c68)c%15c%12%11)C2(C[N+]1(C)C)C%22C%19c1c-%18c2c5c(c13)C4C7C9=C5C1(C2C%17%14)C(CCCC)[N+](C)(C)CC%10%131.[I-].[I-] (centres undefined) | 6.25 | 6.25 | 6.25 | 6.25 |  | 6.25 | 12.5 | 6.25 | 6.25 |
| CN[C@H](CC(C)C)C(=O)N[C@H]1C(=O)N[C@@H](CC(N)=O)C(=O)N[C@H]2C(=O)N[C@H]3C(=O)N[C@H](C(=O)N[C@H](C(=O)O)c4cc(O)cc(O)c4-c4cc3ccc4O)[C@H](O)c3ccc(c(Cl)c3)Oc3cc2cc(c3O[C@@H]2O[C@H](CO)[C@@H](O)[C@H](O)[C@H]2O[C@H]2C[C@](C)(N)[C@H](O)[C@H](C)O2)Oc2ccc(cc2Cl)[C@H]1O [VANCOMYCIN] | 1.56 (≈ 1.08 µM) | > 100 | 1.56 (≈ 1.08 µM) | 3.12 (≈ 2.15 µM) |  | 1.56 (≈ 1.08 µM) | > 100 | 3.12 (≈ 2.15 µM) | 3.12 (≈ 2.15 µM) |
